The source of these data is ChEMBL document CHEMBL1201862, “PubChem BioAssay data set” (2004).

Molecules are shown by their SMILES.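 These data come from cells grown in 96-well plates and exposed to compound for 48 hours at five concentrations. At the GI50, growth is halved.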 Activity calls are given as the source filed them. No stated cut-off is given here; in the data, active = GI50 up to about 1.1 µM and inactive = higher.

Holding throughout (test): NCI tumour cell line growth inhibition, 48 h
The test system of assay [1] is U-251.
Assay [2] relates to NCI-H522.
In assay [3] the test system is HCT-15.
For assay [4], the system named is NCI-H23.
The subject of assay [5] is HT-29.
The subject of assay [6] is A549.
For assay [7], the system named is Malme-3M.
The test system of assay [8] is SNB-75.
The test system of assay [9] is IGROV-1.
The subject of assay [10] is SF-268.
Assay [11] deals with SF-539.
For assay [12], the system named is EKVX.
The test system of assay [13] is OVCAR-8.
The test system of assay [14] is SNB-19.
In assay [15] the test system is HOP-62.
The subject of assay [16] is A498.
For assay [17], the system named is RXF 393.

As to `COC(=O)C(=O)C(C#N)c1ccc(Cl)c(Cl)c1` (stereo not drawn), the GI50 is > 100 µM (inactive) in assay [1]; > 100 µM (inactive) in assay [2]; over 100 µM in [3]; > 100 µM (inactive) in [4]; > 100 µM (inactive) in [5]; > 100 µM (inactive) in assay [6]. Moreover, the GI50 in assay [7] was > 100 µM (inactive); in assay [8] it was 80 µM (inactive); in assay [9], > 100 µM (inactive); in assay [10] it was > 100 µM (inactive); in [11], > 100 µM (inactive); in assay [12], 64.3 µM (inactive).

For `O=C1CNS(=O)(=O)N1`, the GI50 in [13], in assay [14], in assay [2], in assay [4], in assay [15] and in assay [5] was > 100 µM (inactive) each time. Moreover, the GI50 in assay [6], in [7], in [8], in assay [16], in [9] and in assay [10] was > 100 µM (inactive) in each case. Further, the GI50 in assay [11] and in assay [12] was > 100 µM (inactive) throughout.

With `Cn1c(=O)c(C2c3ccccc3Oc3c2c(=O)n(C)c2ccccc32)c(O)c2ccccc21` (stereo not drawn), the GI50 was 41.2 µM (inactive) in assay [1]; > 100 µM (inactive) in assay [13]; 44.4 µM (inactive) in [14]; 24.3 µM (inactive) in assay [2]; 32.4 µM in [3]; 40.6 µM (inactive) in assay [4]. Also, the GI50 is > 100 µM (inactive) in assay [15]; 92.7 µM (inactive) in [5]; 72.6 µM (inactive) in assay [6]; 73.5 µM (inactive) in assay [7]; 40.9 µM (inactive) in [8]; 59.2 µM (inactive) in [9]. Also, the GI50 in assay [17] was 63 µM (inactive); in assay [10], 66.4 µM (inactive); in assay [11], 76.2 µM (inactive); in [12] it was 41.2 µM (inactive).

Consider `CC(C)(C)c1cc(CCC(=O)Nc2ccc(Cl)cc2Cl)nc(N)n1`, for which the GI50 is > 100 µM (inactive) in [1]; > 100 µM (inactive) in assay [13]; > 100 µM (inactive) in [14]; over 100 µM in assay [3]; > 100 µM (inactive) in assay [4]; > 100 µM (inactive) in [15]. Moreover, the GI50 in [5], in assay [6], in [7], in assay [9], in [17] and in assay [10] was > 100 µM (inactive) each time. For the same compound, the GI50 in assay [11] and in assay [12] was > 100 µM (inactive) in each case.

On to `COc1cccc2c1C(=O)c1c(O)c3c(c(O)c1C2=O)C[C@@](O)(C(=O)CO)CC3OC1CC(N(C)CCOCC(OC(C)=O)OC(C)=O)C(O)C(C)O1` (stereo partly drawn), for which the GI50 in assay [1], in [13], in assay [14], in assay [2], in [4] and in [15] was > 0.01 µM (active) each time. For the same compound, the GI50 in assay [5], in assay [6], in assay [7], in [8], in assay [9] and in [17] was > 0.01 µM (active) throughout. Also, the GI50 in assay [10], in assay [11] and in assay [12] was > 0.01 µM (active) each time.

As to `C[C@]12CCCC(=O)C1(O)C[C@H](C(=O)O)CC2` (stereo partly drawn), the GI50 in [1] is > 100 µM (inactive); in [13], > 100 µM (inactive); in assay [14] it was > 100 µM (inactive); in assay [2], > 100 µM (inactive); in [3], over 100 µM; in assay [4], > 100 µM (inactive). For the same compound, the GI50 in [15], in [5], in assay [6], in assay [7], in assay [8] and in assay [16] was > 100 µM (inactive) throughout. Moreover, the GI50 in assay [9], in assay [10] and in [11] was > 100 µM (inactive) throughout.

As for `Nc1nc(N)c(N=O)c(Nc2ccc(I)cc2)n1`, the GI50 in assay [1] is 25.3 µM (inactive); in assay [13], 29.4 µM (inactive); in assay [14], 30.1 µM (inactive); in assay [2] it was 12.1 µM (inactive); in [3], 12.2 µM; in assay [4], 18.2 µM (inactive). Moreover, the GI50 in assay [15] was 16.6 µM (inactive); in assay [6] it was 65.8 µM (inactive); in assay [7], 19.2 µM (inactive); in [9], 3.94 µM (inactive); in assay [17], 17.9 µM (inactive); in [10], 13.9 µM (inactive). In addition, the GI50 in assay [11] is 25.5 µM (inactive); in [12], > 100 µM (inactive).

For `CC1CCCC(C(=O)/C(=C/c2cccc(Cl)c2)C(=O)C(=O)O)C1` (stereo not drawn), the GI50 is 17.3 µM (inactive) in assay [1]; 20.3 µM (inactive) in assay [13]; 33.8 µM (inactive) in [14]; 0.0161 µM (active) in assay [2]; 13.8 µM in assay [3]; 39.5 µM (inactive) in assay [4]. For the same compound, the GI50 in assay [15] was > 100 µM (inactive); in assay [5] it was 18.4 µM (inactive); in assay [6], 60.7 µM (inactive); in assay [7], > 100 µM (inactive); in assay [8], 29.9 µM (inactive); in [16], > 100 µM (inactive). The GI50 in assay [9] was 30.9 µM (inactive); in [10], 42.1 µM (inactive); in assay [11], 27.5 µM (inactive); in [12], 47.1 µM (inactive).

With `CC1Nc2ccccc2NC1C=C(C#N)C#N` (stereo not drawn), the GI50 is 16.1 µM (inactive) in assay [1]; 7.76 µM (inactive) in assay [13]; 17.9 µM (inactive) in assay [14]; 10.9 µM (inactive) in [2]; 17.4 µM in assay [3]; 17.2 µM (inactive) in [4]. Also, the GI50 in [15] was 20.4 µM (inactive); in assay [5], 16.7 µM (inactive); in assay [6] it was 22.8 µM (inactive); in assay [7], 16.7 µM (inactive); in assay [8], 14.6 µM (inactive); in [9], 18.1 µM (inactive). Besides, the GI50 is 16.6 µM (inactive) in [17], 14.7 µM (inactive) in assay [10], 13.2 µM (inactive) in assay [11] and 19.5 µM (inactive) in [12].

For `Cc1nc(=O)n2c(C)n[nH]c2c1C(=O)Nc1cc(Cl)cc(Cl)c1`, the GI50 is 21.1 µM (inactive) in assay [1]; 45.5 µM (inactive) in assay [13]; 6.01 µM (inactive) in assay [2]; 19.3 µM in assay [3]; 24.6 µM (inactive) in assay [4]; 25.6 µM (inactive) in assay [15]. The GI50 is 31.3 µM (inactive) in assay [5]; 19.2 µM (inactive) in assay [6]; 30.9 µM (inactive) in assay [7]; 37.2 µM (inactive) in [8]; 24.5 µM (inactive) in [9]; 11.9 µM (inactive) in assay [17]. For the same compound, the GI50 in assay [10] was 33.3 µM (inactive); in assay [11], 21.8 µM (inactive); in assay [12], 31.1 µM (inactive).

Turning to `c1ccc2c(c1)CCc1c(-c3ccncc3)n[nH]c1-2`, the GI50 is 13.6 µM (inactive) in [1]; 29.4 µM (inactive) in [13]; 27.7 µM (inactive) in assay [14]; > 10 µM (inactive) in assay [2]; 32.1 µM in [3]; 19.4 µM (inactive) in assay [4]. Also, the GI50 in [15] is 28.4 µM (inactive); in assay [5] it was 44.6 µM (inactive); in assay [6], 30.8 µM (inactive); in [7], 33.5 µM (inactive); in assay [8], 26.3 µM (inactive); in assay [16] it was 25.9 µM (inactive). The GI50 in assay [9] is 26.4 µM (inactive); in [10], 28.8 µM (inactive); in [11], 24.8 µM (inactive); in assay [12], 6.14 µM (inactive).

On to `Cc1ccc(NC(=O)CC2SC(Nc3cccc(Cl)c3C)=NC2=O)cc1` (stereo not drawn), for which the GI50 was 50.4 µM (inactive) in assay [1]; 40.6 µM (inactive) in assay [13]; 40.4 µM (inactive) in [14]; 76.9 µM in assay [3]; 28.6 µM (inactive) in [4]; > 100 µM (inactive) in assay [15]. Besides, the GI50 in assay [5] was > 100 µM (inactive); in assay [6], 51.1 µM (inactive); in [7] it was 52.4 µM (inactive); in assay [8], > 100 µM (inactive); in [16], 33 µM (inactive); in [9] it was 94.8 µM (inactive). In addition, the GI50 is 37 µM (inactive) in assay [10], 53.1 µM (inactive) in [11] and 70 µM (inactive) in assay [12].

Consider `N#CC1([N+](=O)[O-])C=C1c1ccccc1` (stereo not drawn), for which the GI50 in assay [1] was > 100 µM (inactive); in assay [13] it was > 100 µM (inactive); in assay [14], > 100 µM (inactive); in assay [2], 23.4 µM (inactive); in [3], 36.7 µM; in assay [4], > 100 µM (inactive). Also, the GI50 is > 100 µM (inactive) in assay [15]; 35.9 µM (inactive) in assay [5]; > 100 µM (inactive) in assay [6]; 63 µM (inactive) in assay [7]; > 100 µM (inactive) in assay [9]; 53.7 µM (inactive) in [10]. Further, the GI50 in assay [11] and in [12] was > 100 µM (inactive) in each case.

As for `CCCCCCCCCc1cc(=O)c2ccc(OCc3ccccc3)cc2o1`, the GI50 in assay [1] is > 100 µM (inactive); in assay [13], > 100 µM (inactive); in assay [14] it was > 100 µM (inactive); in assay [2], > 100 µM (inactive); in [3] it was over 100 µM; in [4], > 100 µM (inactive). Moreover, the GI50 in [15] was > 100 µM (inactive); in assay [5], > 100 µM (inactive); in [6] it was 70.8 µM (inactive); in assay [7] it was 25.8 µM (inactive); in [8] it was 30.8 µM (inactive); in [9] it was > 100 µM (inactive). The GI50 is 96.2 µM (inactive) in assay [17], > 100 µM (inactive) in assay [10], 90.8 µM (inactive) in assay [11] and > 100 µM (inactive) in [12].
